Tests used:
AMPK = AMPK activation (levels of phosphorylated AMPK, Western blotting); type: cell-based
Method: (§1) Biochemistry. Western blotting: Cells were lysed in the appropriate volume of lysis buffer (50 mM HEPES, 100 mM NaCl, 2 mM EDTA, 1% glycerol, 50 mM NaF, 1 mM Na3VO4, 1% Triton X-100, with protease inhibitors). The following antibodies were used: HSD17B4 (GeneTex, GTX103864), AMPK (Cell Signaling, 2532), pAMPK (Cell Signaling, 2535), ACC (Cell Signaling, 3676), pACC (Cell Signaling, 11818), p^70 (Cell Signaling, 2708), p-p^70 (Cell Signaling, 9914), S6 (Cell Signaling, 2217), pS6 (Cell Signaling, 4858), MCCA (GeneTex, GTX110062), tubulin (Hybridoma Bank, E7), Actin (Sigma, A1978), His-tag (BD Pharmingen, 552564).

[1] = system: acetyl CoA carboxylase (ACC); assay: ACC phosphorylation / activation downstream of AMPK (Western blotting); type: cell-based
Method: as §1

[2] = target: T1, HSD17B4 (full-length and truncated constructs) (Homo sapiens, UniProt P51659); assay: Streptavidin bead-based pull-down with purified full-length and truncated HSD17B4 constructs; type: binding; conditions: purified protein from E. coli
T1 construct: His-tag; made in house; host or cells: E. coli BL21 (pET28)
T1 sequence (P51659 1-736): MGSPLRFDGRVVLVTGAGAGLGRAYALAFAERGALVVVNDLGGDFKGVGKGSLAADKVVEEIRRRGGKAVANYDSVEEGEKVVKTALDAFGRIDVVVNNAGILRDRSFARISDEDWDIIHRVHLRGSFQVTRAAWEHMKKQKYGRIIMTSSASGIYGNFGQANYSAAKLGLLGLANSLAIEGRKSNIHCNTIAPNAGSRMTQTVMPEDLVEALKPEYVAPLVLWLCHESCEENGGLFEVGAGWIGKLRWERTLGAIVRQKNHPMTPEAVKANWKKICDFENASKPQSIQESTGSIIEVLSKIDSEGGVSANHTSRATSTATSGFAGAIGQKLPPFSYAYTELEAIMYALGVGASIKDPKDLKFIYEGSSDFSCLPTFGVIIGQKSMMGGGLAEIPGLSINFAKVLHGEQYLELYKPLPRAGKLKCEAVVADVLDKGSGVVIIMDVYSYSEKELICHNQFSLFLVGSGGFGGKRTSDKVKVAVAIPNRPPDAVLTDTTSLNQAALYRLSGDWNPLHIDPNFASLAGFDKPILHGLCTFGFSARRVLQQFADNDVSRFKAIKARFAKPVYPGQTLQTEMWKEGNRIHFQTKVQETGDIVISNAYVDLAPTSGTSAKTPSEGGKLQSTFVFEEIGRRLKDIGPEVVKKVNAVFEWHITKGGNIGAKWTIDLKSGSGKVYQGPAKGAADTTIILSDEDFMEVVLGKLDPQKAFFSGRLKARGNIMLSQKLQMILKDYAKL
Description: (§2) We next sought to delineate if these cystisine-linked isoflavonoid inhibitors were selective for one of the two enzymatic activities, either the α,β-dehydrogenase or hydratase activity, found in HSD17B4. We generated a panel of truncated HSD17B4 constructs and purified these truncated proteins as well as the full-length protein from E. coli (FIG. 3A). We evaluated the binding of 15d to these constructs using the streptavidin bead-based pull-down assay.
(§3) Streptavidin-agarose pulldown: Biotinylated compound 15d (FIG. 2A) was incubated with cell lysates and streptavidin beads. The binding proteins were pulled down and analyzed by 4-12% SDS-PAGE as described previously. The protein bands were identified by NanoLC-ESI-MS/MS at ProtTech Inc. For binding and enzymatic assays, His-tagged HSD17B4 constructs were clone and truncated by PCR using pET28. The full-length and truncated proteins were purified from bacteria BL21.

[3] = system: HSD17B4 (full-length and truncated constructs); assay: as above; type: binding; conditions: purified protein from E. coli
Description: as §2, §3

MCCA = target: T2, MCCA (Homo sapiens, UniProt Q96RQ3); assay: Streptavidin-bead pull-down from LS174T cell lysates, validated by Western blot; type: binding
T2 construct: endogenous in cells; host or cells: LS174T colon cancer cells
T2 sequence (Q96RQ3 42-725): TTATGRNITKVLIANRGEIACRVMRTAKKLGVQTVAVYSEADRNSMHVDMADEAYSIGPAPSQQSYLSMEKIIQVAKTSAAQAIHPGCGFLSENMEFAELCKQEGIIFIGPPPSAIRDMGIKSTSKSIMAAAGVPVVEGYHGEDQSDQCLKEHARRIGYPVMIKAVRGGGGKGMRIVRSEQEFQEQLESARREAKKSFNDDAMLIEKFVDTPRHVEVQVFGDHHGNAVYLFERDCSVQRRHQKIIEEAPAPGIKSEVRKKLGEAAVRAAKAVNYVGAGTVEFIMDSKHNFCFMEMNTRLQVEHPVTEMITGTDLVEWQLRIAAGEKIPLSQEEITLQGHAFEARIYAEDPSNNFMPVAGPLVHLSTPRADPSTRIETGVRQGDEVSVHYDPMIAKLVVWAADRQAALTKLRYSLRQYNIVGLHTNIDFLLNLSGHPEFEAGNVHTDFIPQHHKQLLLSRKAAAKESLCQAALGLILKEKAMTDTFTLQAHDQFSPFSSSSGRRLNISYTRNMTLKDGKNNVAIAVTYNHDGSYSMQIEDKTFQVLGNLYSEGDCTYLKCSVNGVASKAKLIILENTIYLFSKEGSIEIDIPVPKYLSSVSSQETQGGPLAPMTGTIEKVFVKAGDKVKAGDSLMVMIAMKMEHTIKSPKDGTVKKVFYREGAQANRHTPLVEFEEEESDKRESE
Method: (§4) Identification of the direct target of these AMPK activators involved incubation of 15d with LS174T cell lysates and a subsequent pull-down assay using biotinylated 15d bound to streptavidin beads. The binding proteins were eluted with 2.5 mM biotin and analyzed by 4-12% SDS-PAGE gel using colloidal blue staining (FIG. 2D). We identified two specific bands (F1 and F2) in the 15d-containing sample compared with the control samples containing only beads or only beads and biotin. These two bands were excised from gels and analyzed by NanoLC-ESI-MS/MS. The band F1 (FIG. 2D) contained two proteins: [1] peroxisomal hydroxysteroid 17-dehydrogenase-4 (HSD17B4); and [2] mitochondrial methylcrotonoyl-CoA carboxylase subunit alpha (MCCA). The band F2 also matched HSD17B4.
(§5) The multifunctional nature of HSD17B4 included two of the four enzymatic activities required for the beta-oxidation of very long-chain fatty acids (VLCFA) in the peroxisome. […] The HSD17B4 antibody (GeneTex) recognized the full-length and the C-terminal fragment (FIG. 2E).
(§6) Streptavidin-agarose pulldown: Biotinylated compound 15d (FIG. 2A) was incubated with cell lysates and streptavidin beads. The binding proteins were pulled down and analyzed by 4-12% SDS-PAGE as described previously. […]

HSD17B4 = assay: as above; type: binding
Method: as §4, §5, §6

Q: With `O=C(CCCCOc1ccccc1)CN1C[C@@H]2C[C@@H](C1)c1cccc(=O)n1C2` [Compound 17, (1S,5S)-3-(2-oxo-6-phenoxyhexyl)-3,4,5,6-tetrahydro-1H-1,5-methanopyrido[1,2-a][1,5]diazocin-8(2H)-one] as the compound, how does the “AMPK activation (in words)” value (AMPK) read?
A: inactive

Q: For `Cc1oc2cc(O)ccc2c(=O)c1-c1ccc(Cl)cc1` [Compound 3d, 3-(4-Chlorophenyl)-7-hydroxy-2-methyl-4H-chromen-4-one], which melting point is on record?
A: 277 to 278 °C

Q: And the “activation of acetyl CoA carboxylase” value [1]?
A: modest activation

Q: And the “AMPK activation (in words)” value (AMPK)?
A: most active AMPK activators

Q: With `Cc1oc2cc(OCCN3C[C@@H]4C[C@H](C3)c3cccc(=O)n3C4)ccc2c(=O)c1-c1ccc(Cl)cc1` [Compound 10d, (1R,5S)-3-(2-((3-(4-Chlorophenyl)-2-methyl-4-oxo-4H-chromen-7-yl)oxy)ethyl)-3,4,5,6-tetrahydro-1H-1,5-methanopyrido[1,2-a][1,5]diazocin-8(2H)-one] as the compound, how does the melting point read?
A: 186 to 187 °C

Q: And the “AMPK-fold Activation (10 μM)” value (AMPK)?
A: 2.2 fold

Q: With `COc1ccc(-c2coc3cc(OCCN4C[C@@H]5C[C@H](C4)c4cccc(=O)n4C5)ccc3c2=O)cc1` [Compound 10b, (1R,5S)-3-(2-((3-(4-Methoxyphenyl)-4-oxo-4H-chromen-7-yl)oxy)ethyl)-3,4,5,6-tetrahydro-1H-1,5-methanopyrido[1,2-a][1,5]diazocin-8(2H)-one] as the compound, how does the “AMPK-fold Activation (10 μM)” value (AMPK) read?
A: 9.9 fold

Q: For `Cc1oc2cc(OCCCCC(CN3C[C@@H]4C[C@@H](C3)c3cccc(=O)n3C4)=NNC(=O)CCOCCOCCOCCOCCNC(=O)CCCC[C@@H]3SCC4NC(=O)NC43)ccc2c(=O)c1-c1ccc(Cl)cc1` (stereo partly drawn) [Compound 15d, N-(22-((3-(4-chlorophenyl)-2-methyl-4-oxo-4H-chromen-7-yl)oxy)-15-oxo-18-(((1S,5S)-8-oxo-1,5,6,8-tetrahydro-2H-1,5-methanopyrido[1,2-a][,5]diazocin-3(4H)-yl)methyl)-3,6,9,12-tetraoxa-16,17-diazadocos-17-en-1-yl)-5-((4S)-2-oxohexahydro-1H-thieno[3,4-d]imidazol-4-yl)pentanamide], which “interaction with full-length HSD17B4” value [2] is on record?
A: interacted

Q: And the “binding to N-terminus-truncated fragment C919” value [3]?
A: strongly bound

Q: And the “interaction with C-terminus-truncated fragment N634” value [3]?
A: not the C-terminus-truncated fragments N318 and N634, interacted

Q: What about the “binding of MCCA in pull-down” value (MCCA) of the same compound?
A: non-specific binding protein

Q: What about the “binding of HSD17B4 in pull-down” value (HSD17B4) of the same compound?
A: specific binding protein

Q: Which “activation of acetyl CoA carboxylase” value [1] does the source give for `O=c1c(-c2ccc(Cl)cc2)coc2cc(O)ccc12` [Compound 3c, 3-(4-Chlorophenyl)-7-hydroxy-4H-chromen-4-one] here?
A: modest activation

Q: What about the “AMPK activation (in words)” value (AMPK) of the same compound?
A: most active AMPK activators

Q: What does the source list for `O=c1c(-c2ccccc2)coc2cc(OCCN3C[C@@H]4C[C@H](C3)c3cccc(=O)n3C4)ccc12` [Compound 10a, (1R,5S)-3-(2-((4-Oxo-3-phenyl-4H-chromen-7-yl)oxy)ethyl)-3,4,5,6-tetrahydro-1H-1,5-methanopyrido[1,2-a][1,5]diazocin-8(2H)-one]?
A: melting point: 197 to 198 °C; AMPK-fold Activation (10 μM) (AMPK): 3.6 fold

Q: For `O=c1cccc2n1C[C@H]1C[C@H]2CN(CC(O)CCCCOc2ccccc2)C1` (stereo partly drawn) [Compound 16, (1S,5S)-3-(2-Hydroxy-6-phenoxyhexyl)-3,4,5,6-tetrabydro-1H-1,5-methanopyrido[1,2-a][1,5]diazocin-8(2H)-one], which “AMPK activation (in words)” value (AMPK) is on record?
A: inactive

Source: patent US10188743B2, “Cytisine-linked isoflavonoid antineoplastic agents for the treatment of cancer” (UNIVERSITY OF KENTUCKY RESEARCH FOUNDATION, priority 2016, dated 2019)
